“And” between values parts separate entries of the source, which are not always exact repeats. Identical values can stand only once. Toxic doses and inconclusive results are not listed. No stated cut-off is given here; in the data, active means T/C of 150% or more; inactive means T/C below 125%.
Test system: L1210 leukemia ip in BDF1 mice, survival T/C
Assay: NCI In Vivo Anticancer Drug Screen. Data for tumor model L1210 Leukemia (intraperitoneal) in B6D2F1 (BDF1) mice
Details: endpoint: mean survival time, higher = longer survival
In short: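 Each compound was tested against a transplantable tumor grown in mice. The endpoint was survival, with treated animals benchmarked against vehicle controls as a simple ratio.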

[1] = dose: 100.0 mg/kg/injection, schedule: Q01DX001 (ip), vehicle: Klucel (hydroxypropylcellulose) (HPC)
[2] = dose: 200.0 mg/kg/injection, schedule: Q01DX001 (ip), vehicle: Klucel (hydroxypropylcellulose) (HPC)
[3] = dose: 50.0 mg/kg/injection, schedule: Q01DX009 (ip), vehicle: saline with Tween-80
[4] = dose: 100.0 mg/kg/injection, schedule: Q01DX009 (ip), vehicle: saline with Tween-80
[5] = dose: 200.0 mg/kg/injection, schedule: Q01DX009 (ip), vehicle: saline with Tween-80
[6] = dose: 100.0 mg/kg/injection, schedule: Q01DX001 (ip), vehicle: saline with Tween-80
[7] = dose: 100.0 mg/kg/injection, schedule: Q04DX002 (ip), vehicle: saline with Tween-80
[8] = dose: 200.0 mg/kg/injection, schedule: Q01DX001 (ip), vehicle: saline with Tween-80
[9] = dose: 200.0 mg/kg/injection, schedule: Q04DX002 (ip), vehicle: saline with Tween-80
[10] = dose: 400.0 mg/kg/injection, schedule: Q01DX001 (ip), vehicle: saline with Tween-80
[11] = dose: 400.0 mg/kg/injection, schedule: Q01DX009 (ip), vehicle: saline with Tween-80
[12] = dose: 400.0 mg/kg/injection, schedule: Q04DX002 (ip), vehicle: saline with Tween-80
[13] = dose: 50.0 mg/kg/injection, schedule: Q01DX009 (ip), vehicle: Klucel (hydroxypropylcellulose) (HPC)
[14] = dose: 100.0 mg/kg/injection, schedule: Q01DX009 (ip), vehicle: Klucel (hydroxypropylcellulose) (HPC)
[15] = dose: 100.0 mg/kg/injection, schedule: Q04DX003 (ip), vehicle: Klucel (hydroxypropylcellulose) (HPC)
[16] = dose: 200.0 mg/kg/injection, schedule: Q04DX003 (ip), vehicle: Klucel (hydroxypropylcellulose) (HPC)
[17] = dose: 400.0 mg/kg/injection, schedule: Q04DX003 (ip), vehicle: Klucel (hydroxypropylcellulose) (HPC)

Measured: T/C

Cc1cc(NS(=O)(=O)c2ccc(N=Nc3ccc(N)nc3N)cc2)nc(C)n1
inactive: dose: 100.0 mg/kg/injection, schedule: Q01DX001 (ip), vehicle: saline 102 % of control | dose: 200.0 mg/kg/injection, schedule: Q01DX001 (ip), vehicle: saline 105 % of control | dose: 400.0 mg/kg/injection, schedule: Q01DX001 (ip), vehicle: saline 100 % of control

CSc1cc(N)nc2n[nH]nc12
inactive: [1] 97 % of control | [2] 110 % of control

Cc1cc2c(c3oc(C4(C)OC4C4OC4C)cc(=O)c13)C(=O)c1c(O)c(C3CC(C)(N(C)C)C(O)C(C)O3)cc(C3CC(N(C)C)C(O)C(C)O3)c1C2=O (stereo not drawn)
inactive: dose: 0.06 mg/kg/injection, schedule: Q01DX009 (ip), vehicle: other 118 % of control | dose: 0.06 mg/kg/injection, schedule: Q01DX009 (ip), vehicle: saline 114 % of control | dose: 0.12 mg/kg/injection, schedule: Q01DX009 (ip), vehicle: other 95 % of control | dose: 0.12 mg/kg/injection, schedule: Q01DX009 (ip), vehicle: saline 86 % of control | dose: 0.24 mg/kg/injection, schedule: Q01DX009 (ip), vehicle: saline 88 % of control | dose: 1.5 micrograms/kg/injection, schedule: Q01DX015 (ip), vehicle: saline 115 % of control | dose: 3.0 micrograms/kg/injection, schedule: Q01DX015 (ip), vehicle: saline 114 % of control | dose: 4.0 micrograms/kg/injection, schedule: Q01DX001 (ip), vehicle: carboxymethylcellulose (CMC) 110 % of control | dose: 6.0 micrograms/kg/injection, schedule: Q01DX015 (ip), vehicle: saline 117 % of control | dose: 9.0 micrograms/kg/injection, schedule: Q01DX001 (ip), vehicle: carboxymethylcellulose (CMC) 109 % of control | dose: 12.0 micrograms/kg/injection, schedule: Q01DX015 (ip), vehicle: saline 117 % of control | dose: 18.0 micrograms/kg/injection, schedule: Q01DX001 (ip), vehicle: carboxymethylcellulose (CMC) 112 % of control | dose: 25.0 micrograms/kg/injection, schedule: Q01DX Z (ip), vehicle: carboxymethylcellulose (CMC) 107 % of control | dose: 37.0 micrograms/kg/injection, schedule: Q01DX001 (ip), vehicle: carboxymethylcellulose (CMC) 112 % of control | dose: 50.0 micrograms/kg/injection, schedule: Q01DX Z (ip), vehicle: carboxymethylcellulose (CMC) 98 % of control | dose: 75.0 micrograms/kg/injection, schedule: Q01DX001 (ip), vehicle: carboxymethylcellulose (CMC) 121 % of control | dose: 96.0 micrograms/kg/injection, schedule: Q01DX015 (ip), vehicle: saline 108 % of control

CC12CCCCC1=CC(O)CC2 (stereo not drawn)
inactive: [3] 98 % of control | [4] 91 % of control | [5] 94 % of control

CCCC(O)(CC)C1CCCC1C (stereo not drawn)
inactive: [3] 105 % of control | [4] 111 % of control | [5] 94 % of control

Cc1ccc(C)c(NC(=O)OCc2ccco2)c1
inactive: [6] 97 % of control | [4] 107 % of control and 89 % of control | [7] 93 % of control and 100 % of control | dose: 100.0 mg/kg/injection, schedule: Q04DX003 (ip), vehicle: saline with Tween-80 105 % of control | [8] 95 % of control | [5] 100 % of control and 89 % of control | [9] 96 % of control and 98 % of control | dose: 200.0 mg/kg/injection, schedule: Q04DX003 (ip), vehicle: saline with Tween-80 93 % of control | [10] 95 % of control | [11] 100 % of control and 89 % of control | [12] 93 % of control and 102 % of control | dose: 400.0 mg/kg/injection, schedule: Q04DX003 (ip), vehicle: saline with Tween-80 93 % of control

CC(C)CNS(=O)(=O)c1ncnc2nc[nH]c12
inactive: dose: 6.0 mg/kg/injection, schedule: Q01DX Z (ip), vehicle: carboxymethylcellulose (CMC) 103 % of control | dose: 12.0 mg/kg/injection, schedule: Q01DX Z (ip), vehicle: carboxymethylcellulose (CMC) 100 % of control | dose: 25.0 mg/kg/injection, schedule: Q01DX Z (ip), vehicle: carboxymethylcellulose (CMC) 106 % of control | dose: 50.0 mg/kg/injection, schedule: Q01DX Z (ip), vehicle: carboxymethylcellulose (CMC) 92 % of control

C=CC(=C)OC
inactive: dose: 25.0 mg/kg/injection, schedule: Q01DX005 (ip), vehicle: saline 117 % of control | dose: 50.0 mg/kg/injection, schedule: Q01DX005 (ip), vehicle: saline 113 % of control | dose: 100.0 mg/kg/injection, schedule: Q01DX005 (ip), vehicle: saline 111 % of control | dose: 200.0 mg/kg/injection, schedule: Q01DX005 (ip), vehicle: saline 107 % of control | dose: 400.0 mg/kg/injection, schedule: Q01DX005 (ip), vehicle: saline 111 % of control

c1ccc(Sc2ccc3ccccc3c2)cc1
inactive: [4] 103 % of control | [5] 97 % of control | [11] 93 % of control

Cc1ccc(NC(=O)OCCOc2ccc(Cl)cc2)c([N+](=O)[O-])c1
inactive: [13] 97 % of control | [14] 87 % of control | [15] 99 % of control | dose: 200.0 mg/kg/injection, schedule: Q01DX009 (ip), vehicle: Klucel (hydroxypropylcellulose) (HPC) 90 % of control | [16] 104 % of control | [17] 90 % of control

CCCCCCCCCCCC(=O)NC(=S)Nc1ccc(C(=O)OCC)cc1
inactive: dose: 100.0 mg/kg/injection, schedule: Q04DX002 (ip), vehicle: saline 93 % of control | dose: 200.0 mg/kg/injection, schedule: Q04DX002 (ip), vehicle: saline 108 % of control | dose: 400.0 mg/kg/injection, schedule: Q04DX002 (ip), vehicle: saline 108 % of control

O=S(=O)(Cc1ccccc1)CC(Cl)c1ccccc1 (stereo not drawn)
inactive: [1] 98 % of control | [15] 97 % of control | [2] 98 % of control | [16] 101 % of control | dose: 400.0 mg/kg/injection, schedule: Q01DX001 (ip), vehicle: Klucel (hydroxypropylcellulose) (HPC) 104 % of control | [17] 92 % of control

Cc1ccc(Cl)cc1NC(=O)N1CCN(c2ccccc2)CC1
inactive: [6] 95 % of control | [4] 98 % of control and 103 % of control | [7] 120 % of control | dose: 100.0 mg/kg/injection, schedule: Q04DX003 (ip), vehicle: saline 101 % of control | [8] 87 % of control | [5] 100 % of control and 102 % of control | [9] 98 % of control and 86 % of control | dose: 200.0 mg/kg/injection, schedule: Q04DX003 (ip), vehicle: saline 90 % of control | [10] 100 % of control | [11] 92 % of control | [12] 95 % of control and 89 % of control | dose: 400.0 mg/kg/injection, schedule: Q04DX003 (ip), vehicle: saline 95 % of control

CC/C(=C(\CC)c1ccc(OCCOS(C)(=O)=O)cc1)c1ccc(OCCOS(C)(=O)=O)cc1
inactive: dose: 12.5 mg/kg/injection, schedule: Q04DX002 (ip), vehicle: saline 97 % of control | dose: 25.0 mg/kg/injection, schedule: Q04DX002 (ip), vehicle: saline 101 % of control | dose: 50.0 mg/kg/injection, schedule: Q04DX002 (ip), vehicle: saline 94 % of control

COc1cc(OC)c(-c2nc3cc(Cl)ccc3c(=O)o2)cc1OC
inactive: dose: 87.5 mg/kg/injection, schedule: Q01DX009 (ip), vehicle: Klucel (hydroxypropylcellulose) (HPC) 114 % of control | dose: 175.0 mg/kg/injection, schedule: Q01DX009 (ip), vehicle: Klucel (hydroxypropylcellulose) (HPC) 98 % of control | dose: 350.0 mg/kg/injection, schedule: Q01DX009 (ip), vehicle: Klucel (hydroxypropylcellulose) (HPC) 93 % of control

CC(C)(C)S(=O)(=O)C(C)(C)C
inactive: [4] 93 % of control | [5] 90 % of control | [11] 88 % of control

Cc1cc(Cl)ccc1NC(=O)COc1ccc(Cl)cc1
inactive: dose: 25.0 mg/kg/injection, schedule: Q01DX009 (ip), vehicle: Klucel (hydroxypropylcellulose) (HPC) 100 % of control | [13] 90 % of control | [14] 88 % of control | [15] 104 % of control | [16] 101 % of control | [17] 92 % of control

CCN(CC)CC#N
inactive: dose: 1.0 mg/kg/injection, schedule: Q01DX009 (ip), vehicle: saline 97 % of control | dose: 2.0 mg/kg/injection, schedule: Q01DX009 (ip), vehicle: saline 99 % of control | dose: 4.0 mg/kg/injection, schedule: Q01DX009 (ip), vehicle: saline 95 % of control | dose: 8.0 mg/kg/injection, schedule: Q01DX009 (ip), vehicle: saline 100 % of control

Reference: PubChem BioAssay AID248 (DTP/NCI, 2004)
